Results from publication PMC7162861, “Synthesis, cytotoxicity, pharmacokinetic profile, binding with DNA and BSA of new imidazo[1,2-a]pyrazine-benzo[d]imidazol-5-yl hybrids” (Scientific Reports, 2020).

Columns and labels:
[1] = test system: HL-60(TB); experiment: NCI cytotoxicity screen, Leukemia panel; format: cell-based; conditions: Homo sapiens, HL-60, HL-60(TB); single dose 10 µM; negative = lethal; read-out: Percent growth inhibition
Procedure: (§1) Cytotoxicity was performed at National Cancer Institute (NCI), Bethesda, USA as per their protocols.

[2] = test system: RPMI-8226; experiment: NCI cytotoxicity screen, Leukemia panel; format: cell-based; conditions: Homo sapiens; RPMI-8226; single dose 10 µM; negative = lethal; read-out: Percent growth inhibition
Procedure: as §1

[3] = test system: SR; experiment: NCI cytotoxicity screen, Leukemia panel; format: cell-based; conditions: Homo sapiens, single dose 10 µM, negative = lethal, read-out: Percent growth inhibition
Procedure: as §1

[4] = test system: K-562; experiment: NCI cytotoxicity screen, Leukemia panel; format: cell-based; conditions: Homo sapiens, K562; K-562; single dose 10 µM; negative = lethal; read-out: Percent growth inhibition
Procedure: as §1

[5] = test system: CCRF-CEM; experiment: NCI cytotoxicity screen, Leukemia panel; format: cell-based; conditions: Homo sapiens, single dose 10 µM, negative = lethal, read-out: Percent growth inhibition
Procedure: as §1

[6] = test system: NCI-H226; experiment: NCI cytotoxicity screen, Non-Small Cell Lung Cancer panel; format: cell-based, human; conditions: Homo sapiens, single dose 10 µM, negative = lethal, read-out: Percent growth inhibition
Procedure: as §1

[7] = test system: NCI-H322M; experiment: as above; format: cell-based, human; conditions: Homo sapiens, single dose 10 µM, negative = lethal, read-out: Percent growth inhibition
Procedure: as §1

[8] = test system: NCI-522; experiment: as above; format: cell-based, human; conditions: Homo sapiens; NCI-522; single dose 10 µM; negative = lethal; read-out: Percent growth inhibition
Procedure: as §1

[9] = test system: NCI-H23; experiment: as above; format: cell-based, human; conditions: Homo sapiens, single dose 10 µM, negative = lethal, read-out: Percent growth inhibition
Procedure: as §1

[10] = test system: TK-10; experiment: NCI cytotoxicity screen, Renal Cancer panel; format: cell-based, human; conditions: Homo sapiens, single dose 10 µM, negative = lethal, read-out: Percent growth inhibition
Procedure: as §1

[11] = test system: 786-0; experiment: NCI cytotoxicity screen, Renal Cancer panel; format: cell-based, human; conditions: Homo sapiens, single dose 10 µM, negative = lethal, read-out: Percent growth inhibition
Procedure: as §1

[12] = test system: MDA-MB-435; experiment: NCI cytotoxicity screen, Melanoma panel; format: cell-based; conditions: Homo sapiens, MDA-MB-435, read-out: Percent growth inhibition
Procedure: as §1

[13] = test system: MALME-3M; experiment: NCI cytotoxicity screen, Melanoma panel; format: cell-based; conditions: Homo sapiens; MALME-3M; single dose 10 µM; negative = lethal; read-out: Percent growth inhibition
Procedure: as §1

[14] = test system: UACC-257; experiment: NCI cytotoxicity screen, Melanoma panel; format: cell-based; conditions: Homo sapiens, single dose 10 µM, negative = lethal, read-out: Percent growth inhibition
Procedure: as §1

[15] = test system: SK-MEL-28; experiment: NCI cytotoxicity screen, Melanoma panel; format: cell-based; conditions: Homo sapiens, single dose 10 µM, negative = lethal, read-out: Percent growth inhibition
Procedure: as §1

[16] = test system: SK-MEL-2; experiment: NCI cytotoxicity screen, Melanoma panel; format: cell-based; conditions: Homo sapiens, single dose 10 µM, negative = lethal, read-out: Percent growth inhibition
Procedure: as §1

[17] = test system: SK-MEL-5; experiment: NCI cytotoxicity screen, Melanoma panel; format: cell-based; conditions: Homo sapiens, single dose 10 µM, negative = lethal, read-out: Percent growth inhibition
Procedure: as §1

[18] = test system: HOP-92; experiment: NCI cytotoxicity screen, Non-Small Cell Lung Cancer panel; format: cell-based; conditions: Homo sapiens, single dose 10 µM, negative = lethal, read-out: Percent growth inhibition
Procedure: as §1

[19] = test system: A549/ATCC; experiment: as above; format: cell-based; conditions: Homo sapiens; A549/ATCC; single dose 10 µM; negative = lethal; read-out: Percent growth inhibition
Procedure: as §1

[20] = test system: NCI-H460; experiment: as above; format: cell-based; conditions: Homo sapiens, single dose 10 µM, negative = lethal, read-out: Percent growth inhibition
Procedure: as §1

[21] = test system: HOP-62; experiment: as above; format: cell-based; conditions: Homo sapiens, single dose 10 µM, negative = lethal, read-out: Percent growth inhibition
Procedure: as §1

[22] = test system: EXVX; experiment: as above; format: cell-based; conditions: Homo sapiens; EXVX; single dose 10 µM; negative = lethal; read-out: Percent growth inhibition
Procedure: as §1

[23] = test system: OVCAR-3; experiment: NCI cytotoxicity screen, Ovarian Cancer panel; format: cell-based, human; conditions: Homo sapiens; OVCAR-3; single dose 10 µM; negative = lethal; read-out: Percent growth inhibition
Procedure: as §1

[24] = test system: SF-268; experiment: NCI cytotoxicity screen, CNS Cancer panel; format: cell-based; conditions: Homo sapiens, single dose 10 µM, negative = lethal, read-out: Percent growth inhibition
Procedure: as §1

[25] = test system: U251; experiment: NCI cytotoxicity screen, CNS Cancer panel; format: cell-based; conditions: Homo sapiens, U-251; U251; single dose 10 µM; negative = lethal; read-out: Percent growth inhibition
Procedure: as §1

[26] = test system: SF-539; experiment: NCI cytotoxicity screen, CNS Cancer panel; format: cell-based; conditions: Homo sapiens, single dose 10 µM, negative = lethal, read-out: Percent growth inhibition
Procedure: as §1

[27] = test system: SNB-19; experiment: NCI cytotoxicity screen, CNS Cancer panel; format: cell-based; conditions: Homo sapiens; SNB-19; single dose 10 µM; negative = lethal; read-out: Percent growth inhibition
Procedure: as §1

[28] = test system: SF-295; experiment: NCI cytotoxicity screen, CNS Cancer panel; format: cell-based; conditions: Homo sapiens, single dose 10 µM, negative = lethal, read-out: Percent growth inhibition
Procedure: as §1

[29] = test system: SNB-75; experiment: NCI cytotoxicity screen, CNS Cancer panel; format: cell-based; conditions: Homo sapiens, single dose 10 µM, negative = lethal, read-out: Percent growth inhibition
Procedure: as §1

Brc1cn2ccnc2c(-c2ccc3c(c2)ncn3C2CCCCC2)n1 [Compound 8, 6-bromo-8-(1-cyclohexyl-1H-benzo[d]imidazol-5-yl)imidazo[1,2-a]pyrazine]
inhibition at 10 µM [1]: 10.5%
inhibition at 10 µM [2]: < 1%
inhibition at 10 µM [3]: 20.6%
inhibition at 10 µM [4]: 17.4%
inhibition at 10 µM [5]: < 1%
inhibition at 10 µM [6]: 3.73%
inhibition at 10 µM [7]: 10.9%
inhibition at 10 µM [8]: 15.2%
inhibition at 10 µM [9]: 8.76%
inhibition at 10 µM [10]: < 1%
inhibition at 10 µM [11]: 1.3%
inhibition at 10 µM [12]: < 1%
inhibition at 10 µM [13]: < 1%
inhibition at 10 µM [14]: < 1%
inhibition at 10 µM [15]: < 1%
inhibition at 10 µM [16]: 0.53%
inhibition at 10 µM [17]: 8.35%
inhibition at 10 µM [18]: 21.9%
inhibition at 10 µM [19]: 4.8%
inhibition at 10 µM [20]: 3.26%
inhibition at 10 µM [21]: 13%
inhibition at 10 µM [22]: 10.3%
inhibition at 10 µM [23]: < 1%
inhibition at 10 µM [24]: 5.8%
inhibition at 10 µM [25]: < 1%
inhibition at 10 µM [26]: 6.65%
inhibition at 10 µM [27]: 10.5%
inhibition at 10 µM [28]: 7.58%
inhibition at 10 µM [29]: 16.4%
